Data published in US9556179B2 (BRISTOL-MYERS SQUIBB COMPANY, priority 2012, dated 2017).

Target: CK1δ (Homo sapiens (Human), UniProt P48730)
Assay: CK1δ kinase assay (Caliper LABCHIP electrophoretic separation of fluoresceinated peptide substrate and product)
Type: biochemical
Details: 200 pM enzyme, 50 μM ATP, 22 hours at room temperature
Procedure: (§1) CK1ε and CK1δ Kinase Assays
(§2) The kinase assay was performed in V-bottom 384-well plates. […] The reaction was incubated at room temperature for 22 hours and terminated by adding 45 μl of 35 mM EDTA to each sample. The reaction mixture was analyzed on the Caliper LABCHIP®3000 (Caliper, Hopkinton, Mass.) by electrophoretic separation of the unphosphorylated substrate and phosphorylated product. […] Compounds were dissolved at 10 mM in dimethylsulfoxide (DMSO) and evaluated at eleven concentrations. IC50 values were derived by non-linear regression analysis.

CK1δ, sequence (P48730 whole entry): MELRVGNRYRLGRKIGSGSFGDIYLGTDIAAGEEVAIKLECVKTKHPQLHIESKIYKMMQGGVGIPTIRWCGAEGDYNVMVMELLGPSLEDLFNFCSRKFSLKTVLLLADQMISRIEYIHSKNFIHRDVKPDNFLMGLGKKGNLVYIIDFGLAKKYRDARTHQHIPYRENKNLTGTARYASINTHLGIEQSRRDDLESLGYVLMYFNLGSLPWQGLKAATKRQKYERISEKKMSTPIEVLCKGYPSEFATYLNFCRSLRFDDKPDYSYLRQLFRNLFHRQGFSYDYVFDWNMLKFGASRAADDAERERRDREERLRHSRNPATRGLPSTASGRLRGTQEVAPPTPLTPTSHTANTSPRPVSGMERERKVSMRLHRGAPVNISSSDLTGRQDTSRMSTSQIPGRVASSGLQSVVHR

| SMILES | IC50 [nM] |
| --- | --- |
| O=C(Nc1cn2nc(-c3c(-c4ccc(F)cc4)ncn3C3CCNCC3)ccc2n1)c1ccncc1 [Compound 1, N-(6-(4-(4-fluorophenyl)-1-(piperidin-4-yl)-1H-imidazol-5-yl)imidazo[1,2-b]pyridazin-2-yl)isonicotinamide] | 0.064 |
| O=C(Nc1cn2nc(-c3c(-c4ccc(F)cc4)ncn3C3CCN(CC4CCOCC4)CC3)ccc2n1)c1ccnc(F)c1 [Compound 19] | 0.611 |
| CN1CCC(CN2CCC(n3cnc(-c4ccc(F)cc4)c3-c3ccc4nc(NC(=O)c5ccnc(F)c5)cn4n3)CC2)CC1 [Compound 25, 2-fluoro-N-(6-(4-(4-fluorophenyl)-1-(1-((1-methylpiperidin-4-yl)methyl)piperidin-4-yl)-1H-imidazol-5-yl)imidazo[1,2-6]pyridazin-2-yl)isonicotinamide] | 0.532 |
| O=C(Nc1cn2nc(-c3c(-c4ccc(F)cc4)ncn3C3CCN(Cc4ncco4)CC3)ccc2n1)c1ccnc(F)c1 [Compound 29, 2-fluoro-N-(6-(4-(4-fluorophenyl)-1-(1-(oxazol-2-ylmethyl)piperidin-4-yl)-1H-imidazol-5-yl)imidazo[1,2-6]pyridazin-2-yl)isonicotinamide] | 0.226 |
| O=C(Nc1cn2nc(-c3c(-c4ccc(F)cc4)ncn3C3CCN(C(=O)C4CC(F)(F)C4)CC3)ccc2n1)c1ccnc(F)c1 [Compound 67, N-(6-(1-(1-(3,3-difluorocyclobutanecarbonyl)piperidin-4-yl)-4-(4-fluorophenyl)-1H-imidazol-5-yl)imidazo[1,2-b]pyridazin-2-yl)-2-fluoroisonicotinamide] | 0.116 |

Target: CK1ε (Homo sapiens (Human), UniProt P49674)
Assay: CK1ε kinase assay (Caliper LABCHIP electrophoretic separation of fluoresceinated peptide substrate and product)
Type: biochemical
Details: 200 pM enzyme, 50 μM ATP, 22 hours at room temperature
Procedure: as §1, §2

CK1ε, sequence (P49674 whole entry): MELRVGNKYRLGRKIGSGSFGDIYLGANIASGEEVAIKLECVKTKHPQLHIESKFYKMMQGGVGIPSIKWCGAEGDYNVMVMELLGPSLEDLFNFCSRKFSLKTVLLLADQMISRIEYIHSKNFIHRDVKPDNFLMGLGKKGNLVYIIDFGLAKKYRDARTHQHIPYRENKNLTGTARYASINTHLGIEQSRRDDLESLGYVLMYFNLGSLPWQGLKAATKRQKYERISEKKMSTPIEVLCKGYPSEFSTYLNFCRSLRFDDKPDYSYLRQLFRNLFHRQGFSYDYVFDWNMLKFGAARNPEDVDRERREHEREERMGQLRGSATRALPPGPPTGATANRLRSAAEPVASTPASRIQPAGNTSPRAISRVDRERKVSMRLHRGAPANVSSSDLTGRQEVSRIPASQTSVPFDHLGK

| SMILES | IC50 [nM] |
| --- | --- |
| O=C(Nc1cn2nc(-c3c(-c4ccc(F)cc4)ncn3C3CCN(C[C@@H](O)C(F)(F)F)CC3)ccc2n1)c1ccncc1 [Compound 7, (R)—N-(6-(4-(4-fluorophenyl)-1-(1-(3,3,3-trifluoro-2-hydroxypropyl)piperidin-4-yl)-1H-imidazol-5-yl)imidazo[1,2-b]pyridazin-2-yl)isonicotinamide] | 1.77 |
| O=C(Nc1cn2nc(-c3c(-c4ccc(F)cc4)ncn3C3CCN(Cc4ccc(O)nc4)CC3)ccc2n1)c1ccnc(F)c1 [Compound 30, 2-fluoro-N-(6-(4-(4-fluorophenyl)-1-(1-((6-hydroxypyridin-3-yl)methyl)piperidin-4-yl)-1H-imidazol-5-yl)imidazo[1,2-b]pyridazin-2-yl)isonicotinamide] | 2 |
| O=C(Nc1cn2nc(-c3c(-c4ccc(F)cc4)ncn3C3CCN(C(=O)c4cocn4)CC3)ccc2n1)c1ccnc(F)c1 [Compound 43, 2-fluoro-N-(6-(4-(4-fluorophenyl)-1-(1-(oxazole-4-carbonyl)piperidin-4-yl)-1H-imidazol-5-yl)imidazo[1,2-6]pyridazin-2-yl)isonicotinamide] | 0.952 |
| Cc1nocc1C(=O)N1CCC(n2cnc(-c3ccc(F)cc3)c2-c2ccc3nc(NC(=O)c4ccnc(F)c4)cn3n2)CC1 [Compound 63, 2-fluoro-N-(6-(4-(4-fluorophenyl)-1-(1-(3-methylisoxazole-4-carbonyl)piperidm-4-yl)-1H-imidazol-5-yl)imidazo[1,2-6]pyridazin-2-yl)isonicotinamide] | 0.391 |
| O=C(Nc1cn2nc(-c3c(-c4ccc(F)cc4)ncn3C3CCN(C(=O)OCCC(F)(F)F)CC3)ccc2n1)c1ccnc(F)c1 [Compound 83, 3,3,3-trifluoropropyl 4-(5-(2-(2-fluoroisonicotinamido)imidazo[1,2-b]pyridazin-6-yl)-4-(4-fluorophenyl)-1H-imidazol-1-yl)piperidine-1-carboxylate] | 0.461 |
| O=C(Nc1cn2nc(-c3c(-c4ccc(F)cc4)ncn3C3CCN(C(=O)CC(F)(F)F)CC3)ccc2n1)c1cc(F)nc(F)c1 [Compound 94, 2,6-difluoro-N-(6-(4-(4-fluorophenyl)-1-(1-(3,3,3-trifluoropropanoyl)piperidin-4-yl)-1H-imidazol-5-yl)imidazo[1,2-b]pyridazin-2-yl)isonicotinamide] | 1.27 |
| Cc1nc(-c2cccnc2)sc1C(=O)Nc1cn2nc(-c3c(-c4ccc(F)cc4)ncn3C3CCNCC3)ccc2n1 [Compound 95, N-(6-(4-(4-fluorophenyl)-1-(piperidin-4-yl)-1H-imidazol-5-yl)imidazo[1,2-b]pyridazin-2-yl)-4-methyl-2-(pyridin-3-yl)thiazole-5-carboxamide] | 0.17 |
| Cc1nc(-c2cccnc2)sc1C(=O)Nc1cn2nc(-c3c(-c4ccc(F)cc4)ncn3C3CCN(C)CC3)ccc2n1 [Compound 96] | 0.966 |
| Cc1nc(-c2ccncc2)sc1C(=O)Nc1cn2nc(-c3c(-c4ccc(F)cc4)ncn3C3CCN(CCO)CC3)ccc2n1 [Compound 105, N-(6-(4-(4-fluorophenyl)-1-(1-(2-hydroxyethyl)piperidin-4-yl)-1H-imidazol-5-yl)imidazo[1,2-b]pyridazin-2-yl)-4-methyl-2-(pyridin-4-yl) thiazole-5-carboxamide] | 0.096 |
| O=C(Nc1cn2nc(-c3c(-c4ccc(F)cc4)ncn3C3CCNCC3)ccc2n1)c1ccnc2ccccc12 [Compound 109, N-(6-(4-(4-fluorophenyl)-1-(piperidin-4-yl)-1H-imidazol-5-yl)imidazo[1,2-b]pyridazin-2-yl)quinoline-4-carboxamide] | 1.03 |
| O=C(Nc1cn2nc(-c3c(-c4ccc(F)cc4)ncn3C3CCN(CCO)CC3)ccc2n1)c1ccnc2ccccc12 [Compound 111, N-(6-(4-(4-fluorophenyl)-1-(1-(2-hydroxyethyl)piperidin-4-yl)-1H-imidazol-5-yl)imidazo[1,2-b]pyridazin-2-yl)quinoline-4-carboxamide] | 0.564 |
| Cc1nc(-c2ccncc2)sc1C(=O)Nc1cn2nc(-c3c(-c4ccc(F)cc4)ncn3C3CN(CCO)C3)ccc2n1 [Compound 152, N-(6-(4-(4-fluorophenyl)-1-(1-(2-hydroxyethyl)azetidin-3-yl)-1H-imidazol-5-yl)imidazo[1,2-b]pyridazin-2-yl)-4-methyl-2-(pyridin-4-yl)thiazole-5-carboxamide] | 3.07 |
| O=C(Nc1cn2nc(-c3c(-c4ccc(F)cc4)ncn3CC(O)CO)ccc2n1)c1ccnc(F)c1 (centres unmarked) [Compound 235, N-(6-(1-(2,3-dihydroxypropyl)-4-(4-fluorophenyl)-1H-imidazol-5-yl)imidazo[1,2-b]pyridazin-2-yl)-2-fluoroisonicotinamide, dimethyl-formamide] | 2.82 |
| O=C(Nc1cn2nc(-c3c(-c4ccc(F)cc4)ncn3C3COC3)ccc2n1)c1ccnc(F)c1 [Compound 239, 2-fluoro-N-(6-(4-(4-fluorophenyl)-1-(oxetan-3-yl)-1H-imidazol-5-yl)imidazo[1,2-b]pyridazin-2-yl)iso-nicotinamide] | 5.18 |
| CC(C)(C)OCCn1cnc(-c2ccc(F)cc2)c1-c1ccc2nc(NC(=O)c3ccnc(F)c3)cn2n1 [Compound 260, N-(6-(1-(2-tert-butoxyethyl)-4-(4-fluorophenyl)-1H-imidazol-5-yl)imidazo[1,2-b]pyridazin-2-yl)-2-fluoroisonicotinamide] | 5.53 |
| Cc1nc(-c2ccc(F)cc2)c(-c2ccc3nc(NC(=O)c4ccncc4)cn3n2)n1C [Compound 301, N-(6-(4-(4-Fluorophenyl)-1,2-dimethyl-1H-imidazol-5-yl)imidazo[1,2-b]pyridazin-2-yl)isonicotinamide] | 5.29 |
| Cc1nc(-c2ccc(F)cc2)c(-c2ccc3nc(NC(=O)c4ccnc(N)c4)cn3n2)n1C [Compound 323, 2-amino-N-(6-(4-(4-fluoro-phenyl)-1,2-dimethyl-1H-imidazol-5-yl)imidazo[1,2-b]pyridazin-2-yl)isonicotin-amide] | 2.68 |
| Cc1cc(C(=O)Nc2cn3nc(-c4c(-c5ccc(F)cc5)nc(C)n4C)ccc3n2)[nH]n1 [Compound 349, N-(6-(4-(4-fluorophenyl)-1,2-dimethyl-1H-imidazol-5-yl)imidazo[1,2-b]pyridazin-2-yl)-5-methyl-1H-pyrazole-3-carboxamide] | 6.89 |
| Cc1nc(-c2ccc(F)cc2)c(-c2ccc3nc(NC(=O)c4cncnc4)cn3n2)n1C [Compound 350, N-(6-(4-(4-fluorophenyl)-1,2-dimethyl-1H-imidazol-5-yl)imidazo[1,2-b]pyridazin-2-yl)-5-pyrimidinecarboxamide] | 2.32 |
| Cc1nnsc1C(=O)Nc1cn2nc(-c3c(-c4ccc(F)cc4)nc(C)n3C)ccc2n1 [Compound 351, N-(6-(4-(4-fluorophenyl)-1,2-dimethyl-1H-imidazol-5-yl)imidazo[1,2-b]pyridazin-2-yl)-4-methyl-1,2,3-thiadiazole-5-carboxamide] | 2.01 |
| Cc1nc(-c2ccc(F)cc2)c(-c2ccc3nc(NC(=O)c4cncn4C)cn3n2)n1C [Compound 360, N-(6-(4-(4-fluorophenyl)-1,2-dimethyl-1H-imidazol-5-yl)imidazo[1,2-b]pyridazin-2-yl)-1-methyl-1H-imidazole-5-carboxamide] | 5.38 |
| Cc1nc(-c2ccc(F)cc2)c(-c2ccc3nc(NC(=O)c4nc[nH]n4)cn3n2)n1C [Compound 368, N-(6-(4-(4-fluorophenyl)-1,2-dimethyl-1H-imidazol-5-yl)imidazo[1,2-b]pyridazin-2-yl)-1H-1,2,4-triazole-3-carboxamide] | 48.4 |
| Cc1nc(-c2ccc(F)cc2)c(-c2ccc3nc(NC(=O)c4ccno4)cn3n2)n1C [Compound 387, N-(6-(4-(4-fluorophenyl)-1,2-dimethyl-1H-imidazol-5-yl)imidazo[1,2-b]pyridazin-2-yl)isoxazole-5-carboxamide] | 11.9 |
| Cc1cc(C(=O)Nc2cn3nc(-c4c(-c5ccc(F)cc5)nc(C)n4C)ccc3n2)n[nH]1 [Compound 401, N-(6-(4-(4-fluorophenyl)-1,2-dimethyl-1H-imidazol-5-yl)imidazo[1,2-b]pyridazin-2-yl)-5-methyl-1H-pyrazole-3-carboxamide] | 34.2 |
